Values quoted from earlier work in patent US8607989B2, “Filter composites for drug detoxification” (Vascular Vision Pharmaceutical Co., priority 2009, dated 2013).

Tested on: breast, colon, and gastric cancer; renal cell carcinoma; and sarcoma

Q: For `O=C1[O][Pt]2([NH][C@@H]3CCCC[C@H]3[NH]2)[O]C1=O` [Oxaliplatin], which “activity in in vivo studies” value is on record?
A: active
